{"source": "patent US20220000957A1", "about": "“COMPOSITION FOR ALLEVIATING SYMPTOMS OF ANDROPAUSE, CONTAINING EXTRACT OF FICUS AURICULATA LOUR. AS ACTIVE INGREDIENT” (KOREA RESEARCH INSTITUTE OF BIOSCiENCE AND BIOTECHNOLOGY, priority 2018, published 2022)", "key": {"[1]": {"test_system": "prostate-specific antigen (PSA)", "assay": "Inhibition of testosterone-induced prostate-specific antigen (PSA) expression in LNCaP cells, real-time RT-PCR", "format": "cell-based", "conditions": "testosterone 100 nM, 24 hours, no extract", "experimental": "Reverse transcription-real-time polymerase chain reaction (real-time RT-PCR) was used to measure the inhibition of expression of prostate-specific antigen (PSA) in testosterone-induced prostate cancer cell lines (LNCaP cells). Specifically, the prostate cancer cell line (LNCaP cells) was dispensed to a 6 well plate at 5×10^5 cells/well. After incubating for 24 hours in an incubator under conditions of 37° C. and 5% CO2, Ficus auriculata Lour. fruit extract of each country of origin (Vietnam, Nepal, Myanmar, Bangladesh, China, Laos) was added at 100 μg/ml and incubated for 3 hours. Testosterone 100 nM was added to each well except for the control and incubated for 24 hours. After incubation for 24 hours, the supernatant was removed, total RNA was extracted using Trizol, and cDNA was synthesized using PrimeScript RT Master Mix (Takara, Japan). The synthesized cDNA was subjected to real-time polymerase chain reaction using TOPreal qPCR 2×PreMIX (Enzynomics, Korea).\nReverse transcription-real-time polymerase chain reaction (real-time RT-PCR) was used to measure the inhibition of expression of prostate-specific antigen (PSA) in testosterone-induced prostate cancer cell lines (LNCaP cells). Specifically, the prostate cancer cell line (LNCaP cells) was dispensed to a 6 well plate at 5×10^5 cells/well. […]"}, "androgen receptor (AR)": {"test_system": "androgen receptor (AR)", "assay": "Androgen receptor (AR) expression in LNCaP cells, real-time RT-PCR", "format": "cell-based", "conditions": "no extract"}}, "note": "Where “and” joins values, the source holds several entries; their conditions need not be identical. Equal values may be shown once.", "data": [{"smiles": "C[C@]12CC[C@H]3[C@@H](CCC4=CC(=O)CC[C@@]43C)[C@@H]1CC[C@@H]2O", "note": "[testosterone]", "values": [{"measurement": "PSA expression increased by testosterone", "setting": "[1]", "result": "190% and 180%"}, {"measurement": "expression of AR increased by testosterone", "setting": "androgen receptor (AR)", "result": 140, "unit": "%"}]}]}
